The values that follow come from BindingDB's records for doi:10.1021/jm00397a017 (Beijing Medical University, 1988).

This assay addresses T1, Dihydrofolate reductase (Escherichia coli (strain K12), UniProt P0ABQ4).
T1 sequence (P0ABQ4 whole entry): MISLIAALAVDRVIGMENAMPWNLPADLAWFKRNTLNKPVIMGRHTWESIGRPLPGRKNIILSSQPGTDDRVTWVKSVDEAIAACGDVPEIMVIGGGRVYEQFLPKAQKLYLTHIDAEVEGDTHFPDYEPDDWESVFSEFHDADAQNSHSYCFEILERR
Put plainly: ChEBML_54731.

From the text: Apparent inhibitory (log 1/Ki) activity against Escherichia coli dihydrofolate reductase

The molecule `Nc1ncc(Cc2cc(OCc3ccccc3)cc(OCc3ccccc3)c2)c(N)n1` displayed a Ki of 1.7 nM.

With `COCCOc1cc(Cc2cnc(N)nc2N)ccc1OC`, the affinity, expressed as Ki, was 1.8 nM.

As to `CCCCOc1ccc(Cc2cnc(N)nc2N)cc1OC`, the Ki turned out to be 0.977 nM.

For `CCCOc1cc(Cc2cnc(N)nc2N)cc(Br)c1OC`, affinity was put at a Ki of 1.1 nM.

The molecule `CCCCOc1cc(Cc2cnc(N)nc2N)cc(Br)c1OC` had a Ki of 1.1 nM.

`CS(=O)(=O)Oc1ccc(Cc2cnc(N)nc2N)cc1` came in with a Ki of 7.1 nM.

`COCCOc1ccc(Cc2cnc(N)nc2N)cc1OC` gave a Ki of 0.562 nM.

On to `COc1cc(Cc2cnc(N)nc2N)ccc1O`, for which the Ki worked out at 0.891 nM.

In the case of `CCCOc1cc(Cc2cnc(N)nc2N)cc(OCCC)c1`, the inhibition constant (Ki) stood at 1.6 nM.

`Cc1cc(C)cc(Cc2cnc(N)nc2N)c1` gave a Ki of 8.9 nM.

`CCOc1cc(Cc2cnc(N)nc2N)cc(OCC)c1` gave a Ki of 0.776 nM.

As to `COc1ccc(Cc2cnc(N)nc2N)cc1OS(C)(=O)=O`, the affinity, expressed as Ki, was 1.1 nM.

As to `CCCOc1cc(Cc2cnc(N)nc2N)cc(OCC)c1`, affinity was put at a Ki of 3.2 nM.

As to `COc1ccc(Cc2cnc(N)nc2N)cc1OCc1ccccc1` [5-(3-Benzyloxy-4-methoxy-benzyl)-pyrimidine-2,4-diamine], the affinity, expressed as Ki, was 0.0977 nM.

Molecule `COc1cc(Cc2cnc(N)nc2N)ccc1OCc1ccccc1` [5-(4-(benzyloxy)-3-methoxybenzyl)pyrimidine-2,4-diamine] displayed a Ki of 0.372 nM.

In the case of `Nc1ncc(Cc2ccc(OCc3ccccc3)cc2)c(N)n1` [5-(4-(benzyloxy)benzyl)pyrimidine-2,4-diamine], the Ki was 2 nM.

The Ki is a measure of affinity in units of concentration, obtained from inhibition or displacement.
